Our source for the AC50 values is ChEMBL document CHEMBL5291721, “A preclinical secondary pharmacology resource illuminates target-adverse drug reaction associations of marketed drugs” (Nat Commun, 2023).

The structures appear in SMILES notation.
Further: assay procedure not described here.

Chain of 5-hydroxytryptamine receptor 2B (P41595 whole entry): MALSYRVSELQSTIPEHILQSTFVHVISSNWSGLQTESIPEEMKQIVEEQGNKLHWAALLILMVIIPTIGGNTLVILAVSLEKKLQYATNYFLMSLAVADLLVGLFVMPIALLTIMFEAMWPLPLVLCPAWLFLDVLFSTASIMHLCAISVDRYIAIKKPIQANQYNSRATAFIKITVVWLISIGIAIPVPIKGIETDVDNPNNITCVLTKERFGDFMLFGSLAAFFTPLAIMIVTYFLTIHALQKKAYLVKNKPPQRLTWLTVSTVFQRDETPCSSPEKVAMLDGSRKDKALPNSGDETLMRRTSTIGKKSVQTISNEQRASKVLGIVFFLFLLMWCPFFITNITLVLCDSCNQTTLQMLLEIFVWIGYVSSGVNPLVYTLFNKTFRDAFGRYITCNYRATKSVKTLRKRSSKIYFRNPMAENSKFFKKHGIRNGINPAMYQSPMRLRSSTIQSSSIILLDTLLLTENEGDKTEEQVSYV

The first experiment concerns the target 5-hydroxytryptamine receptor 2B (Homo sapiens, UniProt P41595).
Usually AC50 stands for the concentration giving half of the maximal activity seen. `C=C[C@H]1C[N@@]2CC[C@H]1C[C@@H]2[C@@H](O)c1ccnc2ccc(OC)cc12` [QUINIDINE] had an AC50 of 2 µM.

In the next experiment the target is T1, Muscarinic acetylcholine receptor M1 (Homo sapiens, UniProt P11229).
T1 sequence (P11229 whole entry): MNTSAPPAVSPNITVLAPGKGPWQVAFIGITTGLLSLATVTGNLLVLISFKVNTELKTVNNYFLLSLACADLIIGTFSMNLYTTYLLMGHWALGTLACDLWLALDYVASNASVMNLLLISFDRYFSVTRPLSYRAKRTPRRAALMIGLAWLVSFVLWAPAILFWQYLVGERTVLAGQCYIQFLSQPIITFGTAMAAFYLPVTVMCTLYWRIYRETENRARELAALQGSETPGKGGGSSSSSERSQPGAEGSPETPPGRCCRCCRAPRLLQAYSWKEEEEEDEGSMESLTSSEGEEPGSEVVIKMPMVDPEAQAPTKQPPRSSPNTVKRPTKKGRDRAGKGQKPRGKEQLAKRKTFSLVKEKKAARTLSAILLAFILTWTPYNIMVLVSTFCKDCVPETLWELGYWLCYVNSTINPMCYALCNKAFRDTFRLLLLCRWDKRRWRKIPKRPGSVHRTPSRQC
It counts as functional.
Compound `C[C@@H](NCCCc1cccc(C(F)(F)F)c1)c1cccc2ccccc12` returned an AC50 of 17 µM. Same read-out and setting: the same measure for `COc1ccc(CC2c3cc(OC)c(OC)cc3CC[N+]2(C)CCC(=O)OCCCCCOC(=O)CC[N+]2(C)CCc3cc(OC)c(OC)cc3C2Cc2ccc(OC)c(OC)c2)cc1OC` (stereo not given): more than 30 µM. The same measure, in the same setting: the same measure for `CC(C(=O)O)c1ccc2c(c1)[nH]c1ccc(Cl)cc12` (stereo not given) [CARPROFEN]: more than 10 µM; for `O=C1CN(/N=C/c2ccc(-c3ccc([N+](=O)[O-])cc3)o2)C(O)=N1` [DANTROLENE]: more than 10 µM; for `C[C@]12C=CC(=O)N[C@@H]1CC[C@@H]1[C@@H]2CC[C@]2(C)[C@@H](C(=O)Nc3cc(C(F)(F)F)ccc3C(F)(F)F)CC[C@@H]12` [DUTASTERIDE]: more than 10 µM. In turn, `C=C[C@H]1C[N@@]2CC[C@H]1C[C@@H]2[C@@H](O)c1ccnc2ccc(OC)cc12` [QUINIDINE] yielded an AC50 of more than 10 µM.

Another experiment addresses T2, Alpha-1A adrenergic receptor (Homo sapiens, UniProt P35348).
T2 sequence (P35348 whole entry): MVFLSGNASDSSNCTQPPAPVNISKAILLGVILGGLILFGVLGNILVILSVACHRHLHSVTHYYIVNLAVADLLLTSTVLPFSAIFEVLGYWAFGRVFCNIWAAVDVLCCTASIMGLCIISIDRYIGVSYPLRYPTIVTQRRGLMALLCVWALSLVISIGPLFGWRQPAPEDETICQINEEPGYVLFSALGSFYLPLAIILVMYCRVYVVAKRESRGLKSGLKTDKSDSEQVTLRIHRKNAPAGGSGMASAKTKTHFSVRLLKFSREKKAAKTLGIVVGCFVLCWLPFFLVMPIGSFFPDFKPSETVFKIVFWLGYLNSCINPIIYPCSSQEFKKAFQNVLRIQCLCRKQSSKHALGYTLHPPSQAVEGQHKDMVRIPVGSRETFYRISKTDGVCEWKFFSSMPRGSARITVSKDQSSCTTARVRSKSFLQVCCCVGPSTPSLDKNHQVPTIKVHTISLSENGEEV
The compound `COc1ccc(CC2c3cc(OC)c(OC)cc3CC[N+]2(C)CCC(=O)OCCCCCOC(=O)CC[N+]2(C)CCc3cc(OC)c(OC)cc3C2Cc2ccc(OC)c(OC)c2)cc1OC` (stereo not given) came in with an AC50 of more than 30 µM.

`CC(C(=O)O)c1ccc2c(c1)[nH]c1ccc(Cl)cc12` (stereo not given) [CARPROFEN] displayed an AC50 of more than 10 µM. Still for that read-out and setting: the value for `O=C1CCc2cc(OCCCCc3nnnn3C3CCCCC3)ccc2N1` [CILOSTAZOL] was more than 10 µM; that for `O=C1CN(/N=C/c2ccc(-c3ccc([N+](=O)[O-])cc3)o2)C(O)=N1` [DANTROLENE] was more than 10 µM; that for `C[C@]12C=CC(=O)N[C@@H]1CC[C@@H]1[C@@H]2CC[C@]2(C)[C@@H](C(=O)Nc3cc(C(F)(F)F)ccc3C(F)(F)F)CC[C@@H]12` [DUTASTERIDE] was more than 10 µM.

In turn, `CC(N)C12CC3CC(CC(C3)C1)C2` (stereo not given) [RIMANTADINE] gave an AC50 of more than 10 µM. The same measure, in the same setting: the value for `O=C1C(CC[S+]([O-])c2ccccc2)C(=O)N(c2ccccc2)N1c1ccccc1` (stereo not given) [SULFINPYRAZONE] was more than 10 µM.

The target of the next experiment is Gamma-aminobutyric acid receptor subunit alpha-1/alpha-2/beta-2/gamma-2 (Homo sapiens, UniProt P14867+P18507+P47869+P47870). The experiment is classed as protein-complex assay.
Chain of Gamma-aminobutyric acid receptor subunit alpha-1/alpha-2/beta-2/gamma-2 (P14867 whole entry): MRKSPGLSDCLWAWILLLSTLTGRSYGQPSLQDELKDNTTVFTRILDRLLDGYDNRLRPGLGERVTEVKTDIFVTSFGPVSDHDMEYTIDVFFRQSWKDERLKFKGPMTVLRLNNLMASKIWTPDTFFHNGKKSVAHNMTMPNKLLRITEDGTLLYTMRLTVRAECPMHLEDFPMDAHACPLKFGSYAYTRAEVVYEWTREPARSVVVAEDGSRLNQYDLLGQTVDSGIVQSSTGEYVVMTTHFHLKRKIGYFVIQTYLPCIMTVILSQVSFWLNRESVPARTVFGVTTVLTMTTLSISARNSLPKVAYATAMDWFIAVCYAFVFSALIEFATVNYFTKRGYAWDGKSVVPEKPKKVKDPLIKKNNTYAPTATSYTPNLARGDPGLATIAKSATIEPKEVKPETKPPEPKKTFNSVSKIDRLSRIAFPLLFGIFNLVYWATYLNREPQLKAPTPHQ
Chain of Gamma-aminobutyric acid receptor subunit alpha-1/alpha-2/beta-2/gamma-2 (P47870 whole entry): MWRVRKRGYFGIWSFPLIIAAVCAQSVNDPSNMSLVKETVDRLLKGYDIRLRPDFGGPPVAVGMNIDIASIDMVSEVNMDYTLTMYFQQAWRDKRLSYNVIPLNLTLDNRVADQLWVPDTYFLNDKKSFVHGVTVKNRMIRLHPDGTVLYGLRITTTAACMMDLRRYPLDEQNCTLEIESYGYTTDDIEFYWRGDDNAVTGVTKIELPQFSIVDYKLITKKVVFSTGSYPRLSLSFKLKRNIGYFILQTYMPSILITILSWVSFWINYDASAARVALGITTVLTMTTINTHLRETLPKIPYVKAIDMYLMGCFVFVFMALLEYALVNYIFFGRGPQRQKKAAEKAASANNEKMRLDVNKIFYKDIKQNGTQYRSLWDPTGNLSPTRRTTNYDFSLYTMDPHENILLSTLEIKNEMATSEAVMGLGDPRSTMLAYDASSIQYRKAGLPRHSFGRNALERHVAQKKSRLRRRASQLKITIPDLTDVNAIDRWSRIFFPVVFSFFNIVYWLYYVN
Chain of Gamma-aminobutyric acid receptor subunit alpha-1/alpha-2/beta-2/gamma-2 (P18507 whole entry): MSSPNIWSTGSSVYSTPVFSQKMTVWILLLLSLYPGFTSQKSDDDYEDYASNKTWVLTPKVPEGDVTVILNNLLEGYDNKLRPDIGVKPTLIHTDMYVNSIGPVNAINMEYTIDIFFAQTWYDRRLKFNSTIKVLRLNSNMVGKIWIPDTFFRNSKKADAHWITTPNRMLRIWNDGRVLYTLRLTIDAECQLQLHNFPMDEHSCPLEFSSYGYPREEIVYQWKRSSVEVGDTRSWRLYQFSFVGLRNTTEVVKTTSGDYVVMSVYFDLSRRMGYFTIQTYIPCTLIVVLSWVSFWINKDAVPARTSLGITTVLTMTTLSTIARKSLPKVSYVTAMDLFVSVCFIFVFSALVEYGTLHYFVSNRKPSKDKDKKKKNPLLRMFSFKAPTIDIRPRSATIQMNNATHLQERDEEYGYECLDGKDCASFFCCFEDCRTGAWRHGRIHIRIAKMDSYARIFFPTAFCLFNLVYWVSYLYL
Chain of Gamma-aminobutyric acid receptor subunit alpha-1/alpha-2/beta-2/gamma-2 (P47869 whole entry): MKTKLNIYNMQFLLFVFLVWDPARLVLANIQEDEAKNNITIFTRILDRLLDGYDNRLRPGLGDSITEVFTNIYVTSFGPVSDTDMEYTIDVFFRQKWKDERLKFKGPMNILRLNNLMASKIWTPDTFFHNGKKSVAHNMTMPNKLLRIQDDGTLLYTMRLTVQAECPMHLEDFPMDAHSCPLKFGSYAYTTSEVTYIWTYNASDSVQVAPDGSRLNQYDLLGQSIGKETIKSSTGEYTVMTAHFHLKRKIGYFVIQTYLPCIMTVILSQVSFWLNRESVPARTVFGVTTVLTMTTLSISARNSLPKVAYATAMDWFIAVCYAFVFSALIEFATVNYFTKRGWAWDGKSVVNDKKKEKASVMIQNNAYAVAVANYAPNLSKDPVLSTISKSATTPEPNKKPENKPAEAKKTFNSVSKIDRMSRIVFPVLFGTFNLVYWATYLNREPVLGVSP
Turning to `O=C(O)COc1ccc(C(=O)c2cccs2)c(Cl)c1Cl`, the AC50 is more than 10 µM. Still for that read-out and setting: the value for `COc1c2ccoc2cc2oc(=O)ccc12` [BERGAPTEN] was more than 30 µM; that for `N[C@@H](CS)C(=O)O` [CYSTEINE] was more than 30 µM; that for `C[C@H]1O[C@@H](n2cc(F)c(=O)[nH]c2=O)[C@H](O)[C@@H]1O` [DOXIFLURIDINE] was more than 30 µM. Same read-out and setting: the value for `CC(CCc1ccccc1)NCC(O)c1ccc(O)c(C(N)=O)c1` (stereo not given) [LABETALOL] was more than 30 µM; that for `C[N+](C)(C)C[C@H](O)CC(=O)[O-]` [LEVOCARNITINE] was more than 30 µM; that for `CN1CCCCC1CCN1c2ccccc2Sc2ccc([S+](C)[O-])cc21` (stereo not given) [MESORIDAZINE] was more than 30 µM. `C[C@@H]1C[C@H]2[C@@H]3CCC4=CC(=O)C=C[C@]4(C)[C@@]3(Cl)[C@@H](O)C[C@]2(C)[C@@]1(OC(=O)c1ccco1)C(=O)CCl` [MOMETASONE FUROATE] yielded an AC50 of more than 30 µM.

The compound `Cc1ccccc1C(=O)Nc1ccc(C(=O)N2CCCC(N(C)C)c3ccccc32)cc1` (stereo not given) [MOZAVAPTAN] registered an AC50 of more than 30 µM. Still for that read-out and setting: the value for `CCOC(=O)C1=C[C@@H](OC(CC)CC)[C@H](NC(C)=O)[C@@H](N)C1` [OSELTAMIVIR] was more than 30 µM; that for `Cc1onc(-c2ccccc2)c1C(=O)N[C@@H]1C(=O)N2[C@@H]1SC(C)(C)[C@@H]2C(=O)O` [OXACILLIN] was more than 30 µM; that for `[H]/N=C(\N/C(=N/[H])Nc1ccc(Cl)cc1)NC(C)C` [PROGUANIL] was more than 30 µM.

In turn, `CC(CN1CC(=O)NC(=O)C1)N1CC(=O)NC(=O)C1` (stereo not given) [RAZOXANE] came in with an AC50 of more than 30 µM. Still for that read-out and setting: the value for `CC(C)OC(=O)CCC/C=C\C[C@@H]1[C@@H](/C=C/C(F)(F)COc2ccccc2)[C@H](O)C[C@@H]1O` [TAFLUPROST] was more than 30 µM; that for `C[C@]1(Cn2ccnn2)[C@H](C(=O)O)N2C(=O)C[C@H]2S1(=O)=O` [TAZOBACTAM] was more than 30 µM.

Regarding `CC1=C(/C=C/C(C)=C/C=C/C(C)=C/C(=O)O)C(C)(C)CCC1` [TRETINOIN], the AC50 is more than 3 µM.
